The numbers were not newly measured in patent US5741892A, “Pentapeptides as antitumor agents” (Basf Aktiengesellschaft, priority 1996, dated 1998), which cites them from elsewhere.

The subject of data set [1] is tubulin.
Data set [2] concerns four different human lymphoma cell lines.
For data set [3] the following is noted: synthetic Dolastatin 10.
Data set [4] deals with P388 lymphocytic leukemia (PS system) cell line.

Take Dolastatin 10: the “inhibition of tubulin polymerization” value in data set [1] is listed as “effectively inhibit”. For the same substance, the “inhibition of growth of lymphoma cell lines” value in data set [2] was “effectively inhibit”. For the same substance, the “solubility in aqueous systems” value in data set [3] is reported as “poor solubility in aqueous systems”.

Consider Dolastatin 15, for which the “inhibition of tubulin polymerization” value in data set [1] is on record as “effectively inhibit”. For the same substance, the “inhibition of growth of lymphoma cell lines” value in data set [2] is reported as “effectively inhibit”. In addition, in data set [4], the “inhibition of cell growth” value is listed as “inhibits the growth”.
